This is an account of results in PubChem BioAssay AID720587 (Broad Institute, 2013).

The structures appear in SMILES notation.

For this experiment, the system named is A673 Ewing sarcoma viability, CellTiter-Glo ATP luminescence, 72 h. The experiment can be described thus: A673 Ewing sarcoma viability loss – cell-based, CellTiter-Glo luminescence, cherry-pick retest, confirmation (AID 720587).

In the case of `COc1ccc(-c2nc3c(s2)CCc2onc(-c4ccc(OC)cc4)c2-3)cc1`, the AC35 was 8 µM.

As to `CNC[C@H](CC1CCCCC1)NC[C@H](CO)NCCc1cccc(C(F)(F)F)c1`, the AC35 is 9.23 µM.

In the case of `COC(=O)C[C@@H]1CC[C@@H]2[C@H](COc3ccc(NC(=O)Nc4ccc(C#N)cc4)cc3C(=O)N2C)O1`, the AC35 is 23.1 µM.

Take `CC(C)Oc1ccc(Br)cc1C(=O)N/N=C/c1c[nH]c2ccccc12`: the AC35 is 22.6 µM.

Turning to `Cc1cccc(/C=C(\c2nc3ccccc3[nH]2)S(=O)(=O)c2ccccc2)c1`, the AC35 was 5.92 µM.

As for `COC(=O)C[C@@H]1CC[C@@H]2[C@H](COc3ccc(NC(=O)c4ccc(F)cc4)cc3C(=O)N2C)O1`, the AC35 was 23 µM.

With `C[C@@H]1CCCCO[C@H](CN(C)Cc2ccc(C(F)(F)F)cc2)[C@H](C)CN([C@H](C)CO)C(=O)c2cc(NC(=O)CCCN(C)C)ccc2O1`, the AC35 is 7.73 µM.

For the compound `C/C(=N\NC(=O)c1n[nH]c2c1CCC2)c1cccs1`, the AC35 was 19.3 µM.

Consider `O=C1NC(=O)N(c2ccccc2)C(=O)/C1=C\C=C\c1ccccc1`, for which the AC35 is 4.03 µM.

As to `C[C@@H]1O[C@@H](O[C@H]2C[C@@H](O)[C@]3(CO)[C@@H]4C(CC[C@]3(O)C2)[C@@]2(O)CC[C@H](C3COC(=O)C3)[C@@]2(C)C[C@H]4O)[C@H](O)[C@H](O)[C@H]1O` (stereo partly drawn), the AC35 was 2.3 µM.

For `COc1ccc(S(=O)(=O)Nc2cccc3c2O[C@H](CN(C)Cc2ccc(C(=O)Nc4ccccc4N)cc2)[C@H](C)CN([C@@H](C)CO)C3=O)cc1`, the AC35 was 5.46 µM.

For `O=C(CCCN1C(=O)/C(=C/c2ccccc2Cl)SC1=S)NNC(=O)c1ccc(Cl)cc1`, the AC35 was 23.9 µM.

Take `CCN1/C(=C/C(C)=C/c2sc3ccccc3[n+]2CC)Sc2ccccc21`: the AC35 is 1.36 µM.

In the case of `CCN1CCS/C1=C\C=C\C1=[N+](CC)CCS1`, the AC35 is 16.1 µM.

For `COC(=O)C[C@@H]1CC[C@H]2[C@H](COc3ccc(NC(=O)Nc4cc(C)cc(C)c4)cc3C(=O)N2C)O1`, the AC35 was 22.2 µM.

Consider `N#C[C@@H]1[C@H](c2ccc(C#Cc3ccc(F)cc3)cc2)[C@@H](CO)N1C(=O)Nc1ccc(F)cc1`, for which the AC35 is 12.3 µM.

Consider `COc1ccccc1-c1ccc(OCCCN2CCC(C(O)(c3ccccc3)c3ccccc3)CC2)cc1`, for which the AC35 was 9.43 µM.

For the compound `COc1ccc(S(=O)(=O)Nc2ccc3c(c2)C(=O)N([C@H](C)CO)C[C@@H](C)[C@@H](CN(C)CC2CCCCC2)OCCCC[C@H](C)O3)cc1`, the AC35 was 12.3 µM.

`C=C(C(=O)c1ccccc1)C(C(=C)C(=O)c1ccccc1)c1ccc(OC)cc1`: the AC35 is 4.04 µM.

For the compound `C[C@@H]1CN([C@H](C)CO)C(=O)c2cc(C#CCN(C)C)cnc2O[C@H]1CN(C)Cc1ccc(-c2ccccc2)cc1`, the AC35 was 10.2 µM.

Consider `CCCCCCN(C(=O)CCCCCN1C(=O)NC(c2ccc(Cl)cc2)C(C(=O)OCc2ccccc2)=C1C)C(C(=O)NCCCC)c1ccc(OCC(=O)OC)c(C(=O)OC)c1` (stereo not drawn), for which the AC35 was 10.8 µM.

Take `C[C@@H]1CN([C@@H](C)CO)C(=O)c2cccc(NC(=O)CCCCCC(=O)Nc3ccccc3N)c2O[C@@H]1CN(C)Cc1ccc(Oc2ccccc2)cc1`: the AC35 is 14.8 µM.

Take `COc1ccccc1N(/N=C1\Sc2ccccc2C1=O)C(C)=O`: the AC35 was 14.8 µM.

For `COc1ccc(C=C2CCc3ccccc3C2=O)cc1`, the AC35 was 18.9 µM.

Consider `COC(=O)[C@H]1[C@H](CO)[C@H]2Cn3c(ccc(-c4ccccc4F)c3=O)[C@@H]1N2CC1CCCC1`, for which the AC35 was 17.4 µM.

As for `C[C@]12CC[C@H](O)C[C@H]1CC[C@@H]1C2CC[C@]2(C)[C@@H](C3=CC(=O)OC3)[C@@H](O)C[C@]12O` (stereo partly drawn), the AC35 was 5.27 µM.

As to `CN(C[C@H]1N[C@@H](CO)[C@@H]1c1ccc(C2=CCCC2)cc1)C(=O)c1cccc(F)c1`, the AC35 is 1.83 µM.

As for `CN(C)c1ccc2c(c1)[C@@H]1C[C@@H](CC(=O)NCc3ccc(Oc4ccccc4)cc3)O[C@H](CO)[C@@H]1O2`, the AC35 was 12.8 µM.

Take `O=c1[nH]c(=O)n(C2C[C@H](O)[C@@H](CO)O2)cc1C(F)(F)F` (stereo partly drawn): the AC35 was 3.17 µM.

As to `C[C@H]1CN([C@@H](C)CO)C(=O)c2cc(NC(=O)C3CCCCC3)ccc2O[C@H]1CN(C)Cc1ccc(C(=O)Nc2ccccc2N)cc1`, the AC35 is 11.5 µM.

Regarding `COC(=O)C[C@@H]1CC[C@@H]2[C@H](COc3ccc(NC(=O)Nc4cccc(C#N)c4)cc3C(=O)N2C)O1`, the AC35 was 12 µM.

In the case of `C[C@@H]1CN([C@@H](C)CO)C(=O)c2cccc(N(C)C)c2O[C@@H]1CN(C)Cc1ccc(C(=O)Nc2ccccc2N)cc1`, the AC35 is 13.8 µM.

In the case of `CCCCCCCCn1c2c(c(=N)c3c1CCC3)CCCC2`, the AC35 was 5.07 µM.

Turning to `C[C@H]1CN([C@@H](C)CO)C(=O)Cc2cc(NC(=O)CCCCCC(=O)Nc3ccccc3N)ccc2O[C@H]1CN(C)Cc1ccc(Cl)c(Cl)c1`, the AC35 was 10.2 µM.

Consider `c1ccc(Nc2nnc(-c3ccc4c(c3)OCO4)o2)cc1`, for which the AC35 is 11.9 µM.

For the compound `Cc1ccc(N2C(=O)c3cccc4c(N)ccc(c34)C2=O)c2cccnc12`, the AC35 was 0.0576 µM.

As for `C[C@H](CO)N1C[C@H](C)[C@H](CN(C)CC2CCCCC2)Oc2ccc(NC(=O)Nc3cccc4ccccc34)cc2C1=O`, the AC35 was 18.7 µM.

On to `COc1ccc(-c2cn(-c3ccc(OC)cc3)c3[n+]2-c2ccccc2CC3)cc1`, for which the AC35 is 13.6 µM.

Consider `COC(=O)C[C@@H]1CC[C@@H]2[C@@H](COc3ccc(NC(=O)Nc4cccc(C#N)c4)cc3C(=O)N2C)O1`, for which the AC35 was 9.17 µM.

With `CCN(CC)c1ccc(C2NC(=O)c3ccccc3N2)cc1` (stereo not drawn), the AC35 was 21.6 µM.

Consider `Nc1nc(N)c2c(ccc3nccc32)[nH]1`, for which the AC35 is 7.01 µM.

`C[C@H](CO)N1C[C@H](C)[C@H](CN(C)CC2CCCCC2)Oc2ccc(NC(=O)CCCCCC(=O)Nc3ccccc3N)cc2CC1=O`: the AC35 was 10.5 µM.

With `OC[C@H]1O[C@@H](n2cnc3c(NCc4ccco4)ncnc32)[C@H](O)[C@@H]1O`, the AC35 was 3.68 µM.

In the case of `CN1c2ccc(-c3ccc(C#N)cc3)cc2[C@H]2[C@H](CCN2S(=O)(=O)c2cccc(F)c2)[C@@H]1CO`, the AC35 was 4.45 µM.

On to `C=C(C(=O)c1ccccc1)C(C)C(=C)C(=O)c1ccccc1`, for which the AC35 is 4.81 µM.

Take `Nc1ccn([C@@H]2O[C@H](CO)[C@@H](O)C2O)c(=O)n1` (stereo partly drawn): the AC35 is 0.448 µM.

Turning to `O=C(N/N=C/c1ccc[nH]1)c1cc(-c2ccc(Cl)cc2)nc2ccccc12`, the AC35 is 11.6 µM.

As for `CN(C)c1ccc(-c2ccnc3c2CC(C)(C(=O)NCc2ccco2)O3)cc1` (stereo not drawn), the AC35 was 7.77 µM.

As for `O=C1/C(=C\c2ccccc2)CN(C(=O)CCN2CCCCC2)C/C1=C/c1ccccc1`, the AC35 was 0.734 µM.

With `CN(C)CC1CCC/C(=C\c2ccc(OC(=O)c3ccc(Cl)cc3)cc2)C1=O` (stereo not drawn), the AC35 was 0.771 µM.

In the case of `C[C@H]1CN([C@@H](C)CO)S(=O)(=O)c2ccc(C#CC(C)(C)O)cc2O[C@@H]1CN(C)Cc1ccc(-c2ccccc2)cc1`, the AC35 was 0.656 µM.

Turning to `O=c1oc2cc(O)ccc2s1`, the AC35 was 12.5 µM.

For `CCc1ccc(/C=C2\SC(=S)N(CCCC(=O)NCCCN3CCOCC3)C2=O)cc1`, the AC35 is 18.7 µM.

`COCC(=O)Nc1ccc2c(c1)[C@@H]1C[C@@H](CC(=O)NCc3ccc(-c4ccccc4)cc3)O[C@@H](CO)[C@@H]1O2`: the AC35 was 12.7 µM.

For `COc1ccc(C2=NNC(=Nc3cc(S(=O)(=O)N(C)C)ccc3C)SC2)c(OC)c1`, the AC35 was 20.5 µM.

As to `COc1ccc(/C=C/C(=O)c2ccc(C(=O)/C=C/c3ccc(OC)c(OC)c3)cc2)cc1OC`, the AC35 is 5.02 µM.

As to `COc1ccc(NC(=O)N2CCCCN3[C@@H](CO)[C@H](c4ccc(C5=CCCCC5)cc4)[C@@H]3C2)cc1`, the AC35 is 10.3 µM.

Turning to `COc1ccc(-c2cc(CNc3nc(NC(C)C)nc4cc(-c5ccccc5)sc34)on2)cc1`, the AC35 is 10 µM.

With `Cc1nn(Cc2ccccc2Cl)c2sc(C(=O)Nc3ccccc3N3CCOCC3)cc12`, the AC35 was 13.5 µM.

In the case of `COc1ccc(C2=Nn3c(nnc3-c3ccccc3F)SC2)cc1OC1CCOC1` (stereo not drawn), the AC35 was 13.5 µM.

With `N#C[C@H]1[C@H](c2ccc(-c3ccccc3F)cc2)[C@@H](CO)N1C(=O)c1ccccn1`, the AC35 is 14.5 µM.

For `C[C@@H]1CN([C@@H](C)CO)C(=O)c2cccc(NS(=O)(=O)c3ccc(F)cc3)c2O[C@@H]1CN(C)Cc1ccc(C(=O)Nc2ccccc2N)cc1`, the AC35 was 8.41 µM.

`COC(=O)C1=C(C)N(Cc2ccccc2C(F)(F)F)C(=NCc2ccc(OC)cc2)NC1c1ccc(C(F)(F)F)cc1` (stereo not drawn): the AC35 is 13.1 µM.

On to `COC(=O)C[C@@H]1CC[C@@H]2[C@H](COc3ccc(NC(=O)Nc4cccc(Cl)c4)cc3C(=O)N2C)O1`, for which the AC35 is 12.5 µM.

As to `COc1ccc(CC(N)c2csc(NC(=O)Nc3cccc(C(F)(F)F)c3)n2)cc1` (stereo not drawn), the AC35 was 6.74 µM.

For `Nc1sc(-c2ccccc2)cc1-c1n[nH]c(=S)n1C1CCCCC1`, the AC35 was 6.83 µM.

With `C[C@@H]1CCCCO[C@H](CN(C)Cc2ccc(C(=O)Nc3ccccc3N)cc2)[C@@H](C)CN([C@H](C)CO)C(=O)c2cc(NS(=O)(=O)c3ccc(Cl)cc3)ccc2O1`, the AC35 is 14.3 µM.

As for `Cc1sc2nc(CN3CCC(C)CC3)nc(Cl)c2c1C`, the AC35 was 10.7 µM.

On to `CCCC[C@@H]1Cc2[nH][nH]c(=O)c2[C@H](c2ccc3ccccc3c2)O1`, for which the AC35 is 7.67 µM.

With `Cc1ccc(/C=N/Nc2ccnc3cc(Cl)ccc23)c(C)c1`, the AC35 is 6.15 µM.

As for `CCOc1ccc2nc(NC3=NC(c4ccc(OC)cc4)CC(=O)N3)nc(C)c2c1` (stereo not drawn), the AC35 is 12.1 µM.

As to `C[C@@H]1CN([C@@H](C)CO)C(=O)c2cc(NS(=O)(=O)c3ccccc3)ccc2O[C@@H]1CN(C)Cc1ccc(C(=O)Nc2ccccc2N)cc1`, the AC35 is 8.39 µM.

For `Cc1ccccc1NC(=O)C(=Cc1ccc(C(=O)O)cc1)C(=O)Nc1ccccc1C`, the AC35 is 5.97 µM.

As for `O=C(c1cccc(S(=O)(=O)NCc2ccccc2)c1)N1CCN(c2ccccc2)CC1`, the AC35 was 20.8 µM.

As to `C[C@@H]1CN([C@@H](C)CO)C(=O)c2cc(NS(=O)(=O)c3ccc(Cl)cc3)ccc2O[C@@H]1CN(C)Cc1ccc(C(=O)Nc2ccccc2N)cc1`, the AC35 is 10.7 µM.

With `CCN1C/C(=C/c2ccc(OC)c(O)c2)C(=O)/C(=C/c2ccc(OC)c(O)c2)C1`, the AC35 is 11.1 µM.

As to `COC(=O)C[C@H]1CC[C@@H]2[C@H](COc3ccc(NC(=O)Nc4cccc(Cl)c4)cc3C(=O)N2C)O1`, the AC35 is 14.1 µM.

For the compound `COc1ccc(-c2ccc3c(c2)[C@H]2[C@H](CCN2S(=O)(=O)c2ccc(OC)cc2)[C@@H](CO)N3C)cc1`, the AC35 is 6.76 µM.
